Columns and labels:
CHO-K1 cells = assay: Cell viability (Cell Glo) in EphA4 cell assay; format: cell-based, Chinese Hamster
Protocol: Transfection and Luciferase Assay: CHO-K1 cells were plated in T-175 cell culture bottle in DMEM medium supplemented with 10% fetal bovine serum, 1 mM sodium pyruvate, 2 mM L-glutamine and 1.5 g/L sodium bicarbonate. When cell reached 70-80% confluence, transfections were performed in T-175 culture flasks, using Lipofectamine 2000™ transfection reagent (Invitrogen) according to the manufacturer's directions. For the luciferase assay CHO-K1 cells were co-transfected the next day with […] of pGAS-Luc, 70 mg of EphA4, and 5 mg of empty vector pRL-CMV, which encoded the Renilla luciferase, and was included in the transfection mix for normalization. […] Cells were lysed the next day using the Reporter Lysis Buffer (Promega), and the luciferase activity was measured using the Dual Luciferase Assay (Promega) following the manufacturer's directions. The Firefly and Renilla luminescences are read consecutively on a Top-Count (Perkin-Elmer). Results are expressed as a ratio of the two luminsescence: Firefly Luciferase/Renilla Luciferase. Cell viability was assessed on parallel plates using the Cell Glo Assay (Promega) following the manufacturer's directions. Results are expressed as percent of cell death in comparison with vehicle-treated wells.

[1] = tested on: Jak2/Stat3 activation with Interferon Gamma in MCF-7 cells; assay: Cell-based counterscreen assay (IFN-γ activated Jak2/Stat3, pGAS-luciferase); conditions: for IC50: Homo sapiens, MCF7, inflexion point, read-out: Cell Counter Screen Assay IP
Text: EphA4 cell-based assay was based on the signaling pathway of EphA4, which involves activation of the tyrosine kinase Jak2 and the transcriptional activator Stat3. However, pharmacological agents could also interfere downstream of EphA4 signaling and particularly on Jak2 activity. To counterscreen this potential effect unrelated to EphA4 activity, a new assay was designed based on direct activation of the tyrosine kinase Jak2 and the transcriptional activator Stat3 with Interferon Gamma (IFN-γ).
MCF-7 cells were maintained in MEM growth media, supplemented with 10% fetal bovine serum, 2 mM L-glutamine, 1.5 g/L sodium bicarbonate, 0.1 mM non-essential amino acids, 1 mM sodium pyruvate, and 0.01 mg/ml bovine insulin. For the luciferase assay MCF-7 cells were co-transfected the next day with […] of pGAS-Luc and […] of empty vector pRL-CMV, which encoded the Renilla luciferase, and was included in the transfection mix for normalization. Six hours after transfection the cells were trypsinized and plated at 4.105 cells/ml into 96 well Black/Clear Poly-D-Lysine coated plates (Biocoat) that had been pre-spotted with compounds. […] Cells were lysed the next day using the Reporter Lysis Buffer (Promega), and the luciferase activity was measured using the Dual Luciferase Assay (Promega) following the manufacturer's directions. The Firefly and Renilla luminescences are read consecutively on a Top-Count (Perkin-Elmer).
Results are expressed as a ratio of the two luminsescence: Firefly Luciferase/Renilla Luciferase. Cell viability was assessed on parallel plates using the Cell Glo Assay (Promega) following the manufacturer's directions. Results are expressed as percent of cell death in comparison with vehicle-treated wells.
Compounds were titrated in duplicate at 10 points concentration starting at 100 μM with a 1.5 fold increment. Concentration-response curves were represented and the concentrations at the inflexion point (IP) were calculated. The maximum effect was given by the maximum percent inhibition calculated from the results of the control wells (containing only DMSO).

C2C12 cells = assay: Toxicity (percent of cell death), C2C12 cells; format: cell-based; conditions: 20 μM
Protocol: EphA4 kinase inhibition is assessed by both an enzymatic assay measuring the phosphorylation of a purified recombinant EphA4 kinase and a cell-based assay using the activation of pGas-Luciferase system in EphA4-transfected CHO-K1 cells. The functional effects of EphA4 RTK inhibitors on cell motility and proliferation is evaluated by the scratch wound assay. The effect of EphA4 RTK inhibitors is also directly measured on the cell confluence. The counterscreen assays (cell counterscreen, Src, Jak2 and P38α kinase) identified other potential inhibitory activities of compounds unrelated to EphA4 kinase. The toxicity is measured by the percent of cell death in the different cell assays. Values represent IC50 and IP in μM calculated from the dose-response curves. Values in parentheses give the maximum percent inhibition.

Jak2 = biological target: T1, Jak2 (Homo sapiens, UniProt O60674); assay: Jak2 kinase counterscreen enzymatic assay (TR-FRET); format: biochemical; conditions: 5 μM ATP
T1 construct: purchased Cell Signaling, USA
Protocol: Counterscreen assays were developed for the tyrosine kinases src kinase and jak2 kinase, with a format essentially identical to the EphA4 kinase TR-FRET format. Jak2 (50 ng) (Cell Signaling, USA) was incubated with 0.5 μM of biotinylated FLT3 peptide (Cell Signaling, USA) in presence of 5 μM of ATP (Sigma). P60c-src (10 U/well) (Upstate biotechnology, USA) was incubated with biotinylated Poly(Glu Tyr) peptide (100 nM) in presence of 0.5 μM of ATP. The enzymatic reaction was stopped after 60 min by adding 15 mM EDTA. The detection reaction and energy transfer signal measurements were similar to those previously described. Results were expressed as ratios of the absorbencies 665/615.
Compounds were titrated in duplicate at 11 points concentration starting at 100 μM with a 3 fold increment. Compounds were diluted in DMSO. […] Percentage inhibition for each compound was then calculated based on the value of the 100% inhibition. Concentration-response curves were represented and the concentrations for 50% inhibition (IC50) were calculated.

T1 sequence (O60674 whole entry, species assumed): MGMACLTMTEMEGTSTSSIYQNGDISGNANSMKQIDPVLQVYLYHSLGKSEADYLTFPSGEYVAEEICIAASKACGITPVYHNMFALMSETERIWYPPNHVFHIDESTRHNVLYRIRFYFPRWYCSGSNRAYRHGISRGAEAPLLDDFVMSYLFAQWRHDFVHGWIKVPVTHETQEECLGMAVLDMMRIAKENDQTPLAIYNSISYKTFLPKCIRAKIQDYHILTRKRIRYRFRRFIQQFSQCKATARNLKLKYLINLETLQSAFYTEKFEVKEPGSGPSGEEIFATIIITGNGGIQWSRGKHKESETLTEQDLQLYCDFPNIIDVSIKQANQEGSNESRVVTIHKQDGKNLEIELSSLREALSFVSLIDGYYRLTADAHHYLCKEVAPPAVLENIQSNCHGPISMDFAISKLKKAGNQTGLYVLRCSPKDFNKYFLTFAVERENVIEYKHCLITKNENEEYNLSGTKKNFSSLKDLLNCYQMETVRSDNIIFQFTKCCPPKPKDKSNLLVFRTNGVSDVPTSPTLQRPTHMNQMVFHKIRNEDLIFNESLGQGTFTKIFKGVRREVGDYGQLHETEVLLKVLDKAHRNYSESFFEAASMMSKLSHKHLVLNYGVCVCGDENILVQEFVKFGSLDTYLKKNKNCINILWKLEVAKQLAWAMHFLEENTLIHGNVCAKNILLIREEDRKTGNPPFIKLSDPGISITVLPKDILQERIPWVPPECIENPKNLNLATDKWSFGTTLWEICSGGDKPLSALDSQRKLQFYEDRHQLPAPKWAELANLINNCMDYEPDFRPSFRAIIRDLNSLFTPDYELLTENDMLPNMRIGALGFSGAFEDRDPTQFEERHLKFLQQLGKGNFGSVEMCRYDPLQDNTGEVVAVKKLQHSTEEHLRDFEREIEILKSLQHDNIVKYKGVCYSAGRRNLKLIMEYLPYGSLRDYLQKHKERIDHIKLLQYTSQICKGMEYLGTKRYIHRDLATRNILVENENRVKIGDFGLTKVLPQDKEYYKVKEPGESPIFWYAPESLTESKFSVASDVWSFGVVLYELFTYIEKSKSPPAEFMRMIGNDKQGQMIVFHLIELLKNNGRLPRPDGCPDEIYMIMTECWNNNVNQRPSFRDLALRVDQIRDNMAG

Compound | Max Toxicity Cell Assay % of cell death (CHO-K1 cells; at 25 μM) | IC50 [1] | Max Toxicity C2C12 in cells % of cell death (C2C12 cells) | IC50 (Jak2) | Max Toxicity Cell Assay % of cell death (CHO-K1 cells; at 50 μM) | Cell Counter Screen Assay max inhibition in % ([1]; value in parentheses)
Cc1ccc(NC(=O)c2cccc(C(F)(F)F)c2)cc1-c1ccc(-n2cccn2)cc1 [Example 120] | 8% at 25 μM | > 100 µM | 10% 20 μM | > 100 µM |  | 
Cc1ccc(NC(=O)c2cccc(C(F)(F)F)c2)cc1-c1ccc(O)c(NC=O)c1 [Example 133] |  | 1.7 µM | 10% 20 μM | > 100 µM | 15% at 50 μM | 99%
